The target of the test is T1, USP28 (His-tagged USP28-FL-mammalian) (Homo sapiens, UniProt Q96RU2).
T1 construct: Expression of USP28 (1-1077)-TEV-6*His (pTT5 vector) was carried out in Expi293f cells; made in house; host or cells: Expi293F cells (pTT5 vector)
T1 sequence (Q96RU2 1-1077): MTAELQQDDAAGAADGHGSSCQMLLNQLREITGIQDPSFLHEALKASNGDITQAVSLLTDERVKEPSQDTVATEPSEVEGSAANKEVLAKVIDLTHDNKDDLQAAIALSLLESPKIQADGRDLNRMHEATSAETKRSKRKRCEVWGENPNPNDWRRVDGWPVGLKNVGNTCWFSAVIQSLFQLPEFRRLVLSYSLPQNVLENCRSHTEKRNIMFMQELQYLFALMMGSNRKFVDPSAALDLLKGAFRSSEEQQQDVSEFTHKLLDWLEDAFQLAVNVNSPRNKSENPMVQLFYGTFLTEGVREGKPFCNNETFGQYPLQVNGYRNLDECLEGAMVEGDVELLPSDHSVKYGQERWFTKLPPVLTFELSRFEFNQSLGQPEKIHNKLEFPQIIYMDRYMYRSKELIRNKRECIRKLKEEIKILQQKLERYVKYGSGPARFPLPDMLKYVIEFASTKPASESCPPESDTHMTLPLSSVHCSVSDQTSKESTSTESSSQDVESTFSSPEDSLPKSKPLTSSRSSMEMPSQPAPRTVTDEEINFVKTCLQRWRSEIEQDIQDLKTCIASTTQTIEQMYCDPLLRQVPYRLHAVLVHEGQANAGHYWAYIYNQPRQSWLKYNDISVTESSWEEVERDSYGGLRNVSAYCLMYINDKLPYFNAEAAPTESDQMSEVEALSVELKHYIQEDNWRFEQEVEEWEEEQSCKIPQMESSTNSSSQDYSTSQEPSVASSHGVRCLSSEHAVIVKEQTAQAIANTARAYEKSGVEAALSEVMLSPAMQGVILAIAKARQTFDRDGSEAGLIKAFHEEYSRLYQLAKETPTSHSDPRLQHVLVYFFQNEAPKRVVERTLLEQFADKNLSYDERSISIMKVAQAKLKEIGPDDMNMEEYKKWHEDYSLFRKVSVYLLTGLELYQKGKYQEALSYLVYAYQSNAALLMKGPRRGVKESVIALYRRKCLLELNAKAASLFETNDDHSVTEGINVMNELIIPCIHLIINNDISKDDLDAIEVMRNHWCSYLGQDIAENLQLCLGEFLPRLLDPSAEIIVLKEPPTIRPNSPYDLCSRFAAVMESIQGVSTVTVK
Kind of test: Ubiquitin-Rhodamine 110 Assay for USP28 Activity, Example A-1(a). The note with it: Ubiquitin-Rhodamine 110 assay. The test is classed as biochemical. An outline of the steps:
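Full-length His-tagged human USP28 (1-1077), expressed in Expi293F cells, was used at […] with 25 nM Ub-Rh110 (<<Km) in 20 mM Tris pH 8.0, 3 mM BME, 0.03% BGG and 0.01% Triton X-100. Compounds (25 μM-1.3 nM, 10-point) were preincubated with enzyme for 30 min, and the reaction ran 45 min at room temperature before a citric acid stop. Fluorescence was read at 485/535 nm, and IC50 came from 4-parameter fits of percent inhibition.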

The mark [1] stands for this setting: read-out: USP28 A-1(a) IC50 range.
Setting [2] is: biochemical IC50 range, read-out: USP28 A-1(a).

Read-outs that look alike come from different tables or passages of the source.

With `CN[C@H]1CCN(c2ccc3c(c2)CC[C@@H](NC(=O)c2sc4nc(C)cnc4c2N)C3)C1` (single isomer, unassigned) [Example 11-26], the IC50 under setting [1] was more than 2000 nM.

With `Cc1ccc2c(N)c(C(=O)N[C@H]3COc4cc(N5C[C@@H](N)[C@@](C)(CF)C5)ccc4C3)sc2n1` [Example 660, 3-amino-N-[(3R)-7-[(3S,4S)-4-amino-3-(fluoromethyl)-3-methylpyrrolidin-1-yl]-3,4-dihydro-2H-1-benzopyran-3-yl]-6-methylthieno[2,3-b]pyridine-2-carboxamide], the IC50 under setting [2] lay in the range of 1 to 50 nM.

With `CN[C@H]1CN(c2ccc3c(n2)CC[C@H](NC(=O)c2sc4nc(C)ccc4c2N)C3)C[C@H]1CF` [Example 441, 3-amino-N-[(6S)-2-[(3R,4R)-3-(fluoromethyl)-4-(methylamino)pyrrolidin-1-yl]-5,6,7,8-tetrahydroquinolin-6-yl]-6-methylthieno[2,3-b]pyridine-2-carboxamide], the IC50 under setting [1] fell in the range of 50 to 200 nM.

With `CN[C@@H]1CCN(c2ccc3c(c2)CC[C@@H](NC(=O)c2sc4nc(C)cnc4c2N)C3)C1` (single isomer, unassigned) [Example 11-28], under setting [1], the IC50 lay within 200 to 2000 nM.

As for `O=C(N[C@H]1COc2cc(N3CCNCC3)ccc2C1)c1ccc(NCc2cccc3cn[nH]c23)nc1` [Example 698, 6-{[(1H-indazol-7-yl)methyl]amino}-N-[(3R)-7-(piperazin-1-yl)-3,4-dihydro-2H-1-benzopyran-3-yl]pyridine-3-carboxamide], the IC50 under setting [2] fell in the range of 200 to 2000 nM.

Take `N#Cc1c(N2CC3CCC(C2)N3)cc(F)c2c1OC[C@H](NC(=O)c1cnc3c(c1)[C@@H]1CC1CN3)C2` (stereo partly drawn) [Example 228, (6aS,7aR)-N-[(3R)-8-cyano-7-(3,8-diazabicyclo[3.2.1]octan-3-yl}-5-fluoro-3,4-dihydro-2H-1-benzopyran-3-yl]-5H,6H,6aH,7H,7aH-cyclopropa[c]1,8-naphthyridine-2-carboxamide]: the IC50 (IC50 ranges, read-out: USP28 A-1(a) IC50) is 200 to 2000 nM.

Regarding `Cc1ccc2c(N)c(C(=O)N[C@H]3COc4cc(N5C[C@@H]6CCNC[C@@H]65)cc(F)c4C3)sc2n1` [Example 665, 3-amino-N-[(3R)-7-[(1R,6S)-3,8-diazabicyclo[4.2.0]octan-8-yl]-5-fluoro-3,4-dihydro-2H-1-benzopyran-3-yl]-6-methylthieno[2,3-b]pyridine-2-carboxamide], under setting [2], the IC50 was 1 to 50 nM.

Consider `Cc1nc2sc(C(=O)N[C@H]3CCc4c(C#N)c(N5CC6CCC(C5)N6)cc(F)c4C3)c(N)c2s1` (single isomer, unassigned) [Example 14-21], for which the IC50 under setting [1] lay in the range of 1 to 50 nM.

Take `Cc1ccc2c(N)c(C(=O)N[C@H]3COc4cc(N5CCNCC5)ccc4[C@@H]3C)sc2n1` (single isomer, unassigned) [Example 11-16]: under setting [1], the IC50 was more than 2000 nM.

On to `Cc1cnc2c(N)c(C(=O)N[C@H]3CCc4c(C#N)c(N5CC6CCC(C5)N6)cc(F)c4C3)sc2n1` (single isomer, unassigned) [Example 14-19], for which the IC50 under setting [1] is 1 to 50 nM.

Turning to `Cc1ccc2c(N)c(C(=O)N[C@H]3CCc4c(C#N)c(N5CC6CNCC(C5)O6)cc(F)c4C3)sc2n1` (single isomer, unassigned) [Example 14-15], the IC50 under setting [1] is 1 to 50 nM.

As for `Cc1cnc2c(N)c(C(=O)N[C@H]3CCc4c(C#N)c(N5CCNCC5)cc(F)c4C3)sc2n1` (single isomer, unassigned) [Example 14-12], the IC50 under setting [1] is 200 to 2000 nM.
